System: lung microvasculature
Experiment: Micro CT scanning of lungs from the SuHx model
Assay type: in vivo, rat
Settings: SuHx rats; sildenafil treatment
Description: Endothelial progenitor cells are reported to preserve microvasculature in MCT treated lung (Zhao et al. Cir. Res. 96:442-450 (2005)). Therefore, micro CT scanning was performed on the lungs from the SuHx model treated with Nx control, vehicle, sildenafil, and 1 million and 5 million GMP1-HE cells.

CCCc1nn(C)c2c(=O)[nH]c(-c3cc(S(=O)(=O)N4CCN(C)CC4)ccc3OCC)nc12 [sildenafil]
capillary perfusion (microCT): modest improvement
